# From article PMC7753047, “Reversal of Cancer Multidrug Resistance (MDR) Mediated by ATP-Binding Cassette Transporter G2 (ABCG2) by AZ-628, a RAF Kinase Inhibitor” (Frontiers in Cell and Developmental Biology, 2020)
# Legend:
# ABCG2 [1] = target: T1, ABCG2 (Homo sapiens, UniProt Q9UNQ0); test: vanadate-sensitive ATPase assay in ABCG2 membranes (stimulation); type: cell-based; set-up: full-length human ABCG2 in membranes of transfected HEK293 cells
# T1 sequence (Q9UNQ0 1-655): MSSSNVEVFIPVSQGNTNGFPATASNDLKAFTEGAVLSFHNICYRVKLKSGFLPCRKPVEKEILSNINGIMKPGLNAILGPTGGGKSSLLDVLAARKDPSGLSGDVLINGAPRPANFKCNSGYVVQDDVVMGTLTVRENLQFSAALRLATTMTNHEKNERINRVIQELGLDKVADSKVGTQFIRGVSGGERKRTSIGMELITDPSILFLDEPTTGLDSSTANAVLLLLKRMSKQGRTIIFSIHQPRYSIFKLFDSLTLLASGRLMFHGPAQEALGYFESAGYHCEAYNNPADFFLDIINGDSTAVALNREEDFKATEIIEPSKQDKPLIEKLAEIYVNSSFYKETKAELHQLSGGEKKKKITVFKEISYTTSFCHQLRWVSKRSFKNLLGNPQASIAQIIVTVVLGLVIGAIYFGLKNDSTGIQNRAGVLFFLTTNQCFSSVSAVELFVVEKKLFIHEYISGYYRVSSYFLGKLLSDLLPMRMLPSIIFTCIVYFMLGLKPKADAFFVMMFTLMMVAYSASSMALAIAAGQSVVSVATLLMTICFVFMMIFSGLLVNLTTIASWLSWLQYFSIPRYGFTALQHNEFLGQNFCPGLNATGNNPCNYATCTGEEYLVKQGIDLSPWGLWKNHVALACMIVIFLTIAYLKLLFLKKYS
# ABCG2 [2] = target: T1, ABCG2
# ABCG2 [3] = target: T1, ABCG2; test: vanadate-sensitive ATPase assay in ABCG2 membranes (stimulation up to […]); also inhibition of [3H]-mitoxantrone efflux at […]; type: cell-based; set-up: full-length human ABCG2 in membranes of transfected HEK293 cells; conditions: read-out: vanadate-sensitive ATPase assay in ABCG2 membranes (stimulation up to 4.3-fold)
SMILES,vanadate-sensitive ATPase assay in ABCG2 membranes (stimulation) (ABCG2 [1]),other results
CC[C@@]1(O)C(=O)OCc2c1cc1n(c2=O)Cc2cc3c(CN(C)C)c(O)ccc3nc2-1 [topotecan],"Compared with the ABCG2 substrate topotecan, which is also an ABCG2 ATPase stimulator, AZ-628 showed stronger activation effects",–
O=C1c2c(O)ccc(O)c2C(=O)c2c(NCCNCCO)ccc(NCCNCCO)c21 [mitoxantrone],–,[3H]-mitoxantrone efflux from ABCG2-overexpressing cells (ABCG2 [2]): plotted to reflect the efflux of [^3H]-mitoxantrone by ABCG2
Cc1ccc(NC(=O)c2cccc(C(C)(C)C#N)c2)cc1Nc1ccc2ncn(C)c(=O)c2c1 [AZ-628],–,maximal fold induction (ABCG2 [3]): 4.3
COc1ccc([C@@H](O)c2cc(-c3ncnc4cc(N5CCOCC5)ccc34)c(F)cc2Cl)nn1 [M3814],The results showed that AZ-628 stimulated ABCG2 ATPase to a higher level than M3814.,–
